From BindingDB's records for doi:10.1021/jm8014537 (Pfizer, 2010)

Target: CYP2D6 (Homo sapiens, UniProt P10635)
Assay: Inhibition of CYP2D6 in human liver microsomes

CYP2D6, sequence (P10635 whole entry): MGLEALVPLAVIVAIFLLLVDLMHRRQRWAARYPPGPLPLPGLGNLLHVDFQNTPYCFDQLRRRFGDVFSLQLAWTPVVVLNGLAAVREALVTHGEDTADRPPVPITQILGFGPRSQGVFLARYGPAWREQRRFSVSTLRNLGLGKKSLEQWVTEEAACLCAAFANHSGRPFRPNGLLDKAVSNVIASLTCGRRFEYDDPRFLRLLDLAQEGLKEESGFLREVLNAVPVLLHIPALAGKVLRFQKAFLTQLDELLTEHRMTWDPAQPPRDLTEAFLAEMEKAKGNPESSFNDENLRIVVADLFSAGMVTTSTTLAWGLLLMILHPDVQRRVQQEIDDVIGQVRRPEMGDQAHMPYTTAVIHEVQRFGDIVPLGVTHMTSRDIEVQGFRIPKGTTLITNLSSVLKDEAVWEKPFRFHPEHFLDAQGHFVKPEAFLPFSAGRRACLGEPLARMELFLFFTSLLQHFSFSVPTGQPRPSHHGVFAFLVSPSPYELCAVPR

Row | Compound | IC50
1 | CCC(C#N)(CC)c1ccc(CCC2(C3CCCC3)CC(=O)C(Cc3nc4nc(C)cc(C)n4n3)C(=O)O2)cc1F (configuration not stated) [2-[4-(2-{2-cyclopentyl-5-[(5,7-dimethyl[1,2,4]triazolo[1,5-a]pyrimidin-2-yl)methyl]-4-hydroxy-6-oxo-3,6-dihydro-2H-pyran-2-yl}ethyl)-2-fluorophenyl]-2-ethylbutanenitrile] | > 6 µM
2 | Cc1cc(C)n2nc(CC3C(=O)CC(CCc4ccc(C(C)(C)O)c(F)c4)(C4CCCC4)OC3=O)nc2n1 (configuration not stated) [6-cyclopentyl-3-[(5,7-dimethyl[1,2,4]triazolo[1,5-a]pyrimidin-2-yl)methyl]-6-{2-[3-fluoro-4-(1-hydroxy-1-methylethyl)phenyl]ethyl}-4-hydroxy-5,6-dihydro-2H-pyran-2-one] | > 6 µM
